Reference: PubChem BioAssay (NCI)
Where “and” joins values, the source holds several entries; their conditions need not be identical. Identical values can stand only once.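 A five-concentration, 48-hour dose response in 96-well plates underlies each endpoint, interpolated linearly between surrounding concentrations. GI50 marks 50% less growth. Definition used: TGI = concentration required for complete inhibition of growth.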 Where a SMILES comes first, the peptide text is derived from it. [ ]: non-standard residue; d: D form. The star is where a group is joined. ξ: configuration not given here. dIva = CC[C@@](C)(N)C(=O)O; Aib = CC(C)(N)C(=O)O; ξP = O=C(O)C1CCCN1; βAla = NCCC(=O)O; X5 = OCN*

Key:
Assay in all cases: DTP human tumour cell line panel, 48 h
SR leukemia = test system: SR leukemia
SK-OV-3 ovarian = test system: SK-OV-3 ovarian
T-47D breast = test system: T-47D breast
MDA-MB-231 breast = test system: MDA-MB-231 breast
RXF 393 renal = test system: RXF 393 renal
SK-MEL-2 melanoma = test system: SK-MEL-2 melanoma

| Compound | TGI (SR leukemia) | TGI (SK-OV-3 ovarian) | TGI (T-47D breast) | TGI (MDA-MB-231 breast) | TGI (RXF 393 renal) | TGI (SK-MEL-2 melanoma) | GI50 (SR leukemia) | GI50 (SK-OV-3 ovarian) | GI50 (T-47D breast) | GI50 (MDA-MB-231 breast) | GI50 (RXF 393 renal) | GI50 (SK-MEL-2 melanoma) |
| --- | --- | --- | --- | --- | --- | --- | --- | --- | --- | --- | --- | --- |
| O=[N+]([O-])c1ccc2nc(=S)[nH]n2c1 | > 100 µM | > 100 µM | > 100 µM | > 100 µM | > 100 µM | > 100 µM |  |  |  |  |  |  |
| COc1cc(OC)c2c(c1Cl)O[C@]1(C2=O)C(OCc2ccccc2)=CC(=O)C[C@H]1C | 10.8 µM | 7.75 µM | 67.8 µM | 5.02 µM | 29.1 µM |  | 0.331 µM | 1.29 µM | 0.792 µM | 1.22 µM | 0.899 µM |  |
| COn1cc(C(=O)N=C(SC)SC)c2ccccc21 |  | > 100 µM | > 100 µM | 51.3 µM | 96.2 µM | 52 µM |  | 50.6 µM | 75.1 µM | 17.5 µM | 25 µM | 17.6 µM |
| C[C@H](CCCOS(C)(=O)=O)[C@H]1CC[C@H]2[C@@H]3CC[C@@H]4C[C@H](OS(C)(=O)=O)CC[C@]4(C)[C@H]3CC[C@]12C |  |  | > 2500 µM |  | > 2500 µM | > 2500 µM |  | > 2500 µM | 1040 µM | 503 µM | 367 µM | 989 µM |
| COc1ccc2c(c1)C(=O)c1c-2n(CCCNCCO)c(=O)c2cc([N+](=O)[O-])ccc12 | < 0.01 µM | 1.69 µM |  | 2.34 µM |  | 2.3 µM | < 0.01 µM | < 0.01 µM |  | 0.594 µM |  | 0.427 µM |
| CCC(=O)OCN1C(=O)C=CC1=O | > 100 µM | > 100 µM |  | 33.2 µM and 33.1 µM | 30.6 µM and 30.5 µM | 29.3 µM | 3.27 µM | > 100 µM |  |  |  |  |
| O=C(O)CSc1nnc2c3ccccc3c3ccccc3c2n1 | > 100 µM | > 100 µM |  | > 100 µM | > 100 µM | > 100 µM |  |  |  |  |  |  |
| O=C(CN1CCN(c2ccccn2)CC1)Nc1ccc(Cl)cc1C(=O)c1ccccc1Cl | > 100 µM | > 100 µM | > 100 µM |  | > 100 µM | > 100 µM | 6.63 µM | > 100 µM | 3.89 µM |  | > 100 µM | > 100 µM |
| COc1ccc(CNC(=O)c2c(C)n([O-])c3cc(F)c(F)cc3[n+]2=O)cc1 |  | 27.9 µM | 16.1 µM | 25.5 µM | 23.4 µM | 29.5 µM |  | 14.8 µM | 3.33 µM | 12.2 µM | 8.2 µM | 15.4 µM |
| CC[C@@](C)(NC(=O)[C@H](C)NC(=O)CCNC(=O)C(C)(C)NC(=O)[C@H](C)NC(=O)[C@@H]1CCCN1C(=O)[C@@](C)(CC)NC(=O)[C@H](Cc1ccccc1)NC(=O)C1CCCN1C(=O)C(C)(C)NC(=O)C1CCCN1C(=O)C(C)(C)NC(C)=O)C(=O)NCCC(=O)N[C@@H](CC(C)C)C(=O)NC(C)(C)C(=O)NCCC(=O)N[C@@H](CC(C)C)C(=O)NC(C)(C)C(=O)NC(C)(C)C(=O)N[C@@H](CC(C)C)C(=O)NCCC(=O)NCO (stereo partly specified) (Ac-[Aib][ξP][Aib][ξP]F[dIva]PA[Aib][βAla]A[dIva][βAla]L[Aib][βAla]L[Aib][Aib]L[βAla]-X5) | 0.646 µM | 0.266 µM | 0.302 µM |  | 0.436 µM | 0.427 µM | 0.272 µM | 0.0725 µM | 0.0739 µM |  | 0.221 µM | 0.202 µM |
| Nc1nc(N)c(-c2ccc(Cl)cc2)c(/C=C/c2ccc([N+](=O)[O-])cc2)n1 | > 100 µM | 56.4 µM | > 100 µM | > 100 µM |  | 67.2 µM | 6.25 µM | 19.2 µM | 6.19 µM | 8.01 µM |  | 18.6 µM |
| CC1(C)N=C(N)N=C(N)N1c1ccc(CCC(=O)Nc2cccc(S(=O)(=O)F)c2)cc1 |  | > 100 µM | > 100 µM | > 100 µM | > 100 µM | > 100 µM |  | > 100 µM | 68.7 µM | 86.8 µM | 56.8 µM | 10.8 µM |
| CC1SC(c2cccc(Cl)c2)N(NC(=O)C(O)c2ccccc2)C1=O (stereo unspecified) |  | > 100 µM | > 100 µM | > 100 µM | > 100 µM | > 100 µM |  | > 100 µM | > 100 µM | > 100 µM | 80.6 µM | > 100 µM |
| CCCNC(=O)Nc1ccc2c(c1)Cc1cc(N(CCCl)CCCl)ccc1-2 | > 100 µM |  |  | > 100 µM | 34.2 µM | 62.9 µM |  |  |  |  |  |  |
| C=C1C(OCCO)OC2O[C@]3(C)CCC4[C@H](C)CCC1C24OO3 (stereo partly specified) | 26.2 µM | > 100 µM | > 100 µM |  |  | > 100 µM | 2.36 µM | > 100 µM | 1.56 µM |  |  | 71.1 µM |
| NC(N)=NC(N)=NCc1ccco1 |  | > 1250 µM | > 1250 µM | > 1250 µM | > 1250 µM | > 1250 µM |  | > 1250 µM | > 1250 µM | > 1250 µM | > 1250 µM | > 1250 µM |
| COc1ccc(-c2cc(=O)c3cccnc3[nH]2)cc1 |  | > 100 µM | > 100 µM | > 100 µM | > 100 µM | > 100 µM |  |  |  |  |  |  |
